Measurements: patent publication US7731856B2, “Method and system for treating waste matter from animals, urea-rich and urea-lean waste-matter products, and uses thereof” (Waste 2 Green, LLC, priority 2003, dated 2010)
Read-outs that look alike come from different tables or passages of the source.

What was measured:
urease [1] = biological target: urease (Canavalia ensiformis, UniProt P07374)
Method: This can simply be studied by addition of 30 ml of methanal to the urease-contaminated and Cu^2+-contaminated reference system.
This is simple studied by addition of 30 ml methanal to the reference system contaminated with urease, Ag^+- or Pb^2+-ions.

[2] = test system: urease activity from natural animal faeces; assay: stable experiment: collected liquid manure and faeces with inhibitor, hyperfiltration, polymerisation with methanal; parameters: species or system pigs; conditions: for polymerisation of concentrated livestock-produced urea with methanal: 50 ml of hyperfiltration concentrate plus 30 ml methanal
Method: Below a stable floor supporting 20 pigs to be slaughtered a large plastic foil covering the underlying floor having the shape of an inverted pyramid was placed. […] The liquid manure and faeces of the animals were collected on this foil for the next 24 hours. From this foil 20 l sample was collected (and separated) and treated in a hyperfiltration system of the type ROMEDI-250 supplied by UNION-filtration a/s, Nakskov, Denmark. The separation process was continued until a total of 15 l permeate liquid—water was withdrawn. The urea-lean fraction was disposed.

urease EC 3.5.1.5 = urease EC 3.5.1.5 (Canavalia ensiformis, UniProt P07374)
Method: For this example, a colourless urea reference system is defined by the following mixture: in a conical flask 10 g of synthetic urea is diluted with water to 50 ml, three drops of the acid-base indicator phenolphthalein is added.

urease [3] = test system: urease
[4] = 30 ml methanal (24% by weight) added to urease-contaminated urea system containing the inhibitor

Sequence of urease (Canavalia ensiformis, UniProt P07374) (P07374 whole entry, looked up): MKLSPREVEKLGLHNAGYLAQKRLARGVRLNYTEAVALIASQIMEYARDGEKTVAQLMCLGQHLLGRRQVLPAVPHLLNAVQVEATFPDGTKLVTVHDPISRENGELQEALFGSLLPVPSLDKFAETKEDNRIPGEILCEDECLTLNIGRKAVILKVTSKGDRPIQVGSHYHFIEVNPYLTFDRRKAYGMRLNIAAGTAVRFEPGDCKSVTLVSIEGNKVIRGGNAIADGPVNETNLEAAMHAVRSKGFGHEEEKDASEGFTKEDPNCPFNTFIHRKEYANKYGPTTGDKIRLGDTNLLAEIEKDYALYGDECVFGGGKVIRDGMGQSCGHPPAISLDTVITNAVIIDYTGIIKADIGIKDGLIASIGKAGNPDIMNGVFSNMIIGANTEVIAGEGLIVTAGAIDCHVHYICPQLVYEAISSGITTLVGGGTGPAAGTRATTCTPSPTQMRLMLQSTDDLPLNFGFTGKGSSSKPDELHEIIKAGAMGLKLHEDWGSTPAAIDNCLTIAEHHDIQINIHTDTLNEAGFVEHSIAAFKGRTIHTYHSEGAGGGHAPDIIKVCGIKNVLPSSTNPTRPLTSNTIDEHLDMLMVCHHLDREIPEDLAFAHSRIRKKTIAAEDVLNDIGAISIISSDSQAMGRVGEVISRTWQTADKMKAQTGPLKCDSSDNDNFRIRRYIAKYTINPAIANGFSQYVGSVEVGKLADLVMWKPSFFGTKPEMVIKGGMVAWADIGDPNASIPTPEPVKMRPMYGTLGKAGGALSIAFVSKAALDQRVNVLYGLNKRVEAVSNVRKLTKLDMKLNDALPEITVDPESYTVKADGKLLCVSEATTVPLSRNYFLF
Sequence of urease EC 3.5.1.5 (P07374 whole entry, looked up): as above

Compound: CC(=NO)C(C)=NO [dimethylglyoxime]
- formation of urea formaldehyde plastic in spite of urease contamination (urease [1]; [4]): it is possible to form the urea formaldehyde plastic
- polymerisation of concentrated livestock-produced urea with methanal [2]: can be reproduced

Compound: NCCN [ethylenediamine]
- formation of urea formaldehyde plastic in spite of urease contamination (urease [1]): it is possible to form the urea formaldehyde plastic
- polymerisation of concentrated livestock-produced urea with methanal [2]: can be reproduced

Compound: CC(=O)[O-].CC(=O)[O-].[Pb+2] [lead acetate]
- polymerisation of concentrated livestock-produced urea with methanal [2]: can be reproduced

Compound: O=[N+]([O-])[O-].[Ag+] [silver nitrate]
- colour shift of phenolphthalein into red (ammonia formation by urea hydrolysis) (urease EC 3.5.1.5; 1 g inhibitor added to 10 g urea in 50 ml water, then 1 ml urease (540 units per ml), system also does not begin to smell of ammonia): the colour shift of phenolphthalein does not occur
- catalytic effect of the urease enzyme on the hydrolysis of urea (urease EC 3.5.1.5; ions present in the urinal system): completely lost
- formation of urea formaldehyde plastic in spite of urease contamination (urease [1]; [4]): it is possible to form the urea formaldehyde plastic
- polymerisation of concentrated livestock-produced urea with methanal [2]: can be reproduced

Compound: NC(N)=O [urea]
- Km (urease [3]; pH 5.5, pig manure system): ~1000 µM
- νm (urease [3]; pH 5.5, pig manure system): approximately 2×10^−3 mol/dm^3/min
- Km (urease [3]; pH 7, similar manure system): ~4000 µM
- νm (urease [3]; pH 7, similar manure system): approximately 11×10^−3 mol/dm^3/min

Compound: copper sulphate, pentahydrate
- urease activity in manure system ([2]; 5 l water and 10 g copper sulphate, pentahydrate below stable floor, 20 pigs, 24 hours collection): remove the urease activity
- polymerisation of concentrated livestock-produced urea with methanal [2]: the polymerisation proceeded
